# Results reported in ChEMBL document CHEMBL4673365, “Design, synthesis and biological evaluation of novel 4-(pyrrolo[2,3-d]pyrimidine-4-yloxy)benzamide derivatives as potential antitumor agents” (Bioorg Med Chem Lett, 2021).
# Tests used:
# MCF7 = assay: Cytotoxicity against human MCF7 cells after 72 hrs by MTT assay; format: functional, cell-based
# HeLa = assay: Cytotoxicity against human HeLa cells after 72 hrs by MTT assay; format: functional, cell-based
# A549 [1] = assay: Cytotoxicity against human A549 cells after 72 hrs by MTT assay; format: functional, cell-based
# [2] = target: Hepatocyte growth factor receptor (Homo sapiens, UniProt P08581); assay: Inhibition of c-Met (unknown origin) by mobility shift assay
# Chain of Hepatocyte growth factor receptor (P08581 whole entry): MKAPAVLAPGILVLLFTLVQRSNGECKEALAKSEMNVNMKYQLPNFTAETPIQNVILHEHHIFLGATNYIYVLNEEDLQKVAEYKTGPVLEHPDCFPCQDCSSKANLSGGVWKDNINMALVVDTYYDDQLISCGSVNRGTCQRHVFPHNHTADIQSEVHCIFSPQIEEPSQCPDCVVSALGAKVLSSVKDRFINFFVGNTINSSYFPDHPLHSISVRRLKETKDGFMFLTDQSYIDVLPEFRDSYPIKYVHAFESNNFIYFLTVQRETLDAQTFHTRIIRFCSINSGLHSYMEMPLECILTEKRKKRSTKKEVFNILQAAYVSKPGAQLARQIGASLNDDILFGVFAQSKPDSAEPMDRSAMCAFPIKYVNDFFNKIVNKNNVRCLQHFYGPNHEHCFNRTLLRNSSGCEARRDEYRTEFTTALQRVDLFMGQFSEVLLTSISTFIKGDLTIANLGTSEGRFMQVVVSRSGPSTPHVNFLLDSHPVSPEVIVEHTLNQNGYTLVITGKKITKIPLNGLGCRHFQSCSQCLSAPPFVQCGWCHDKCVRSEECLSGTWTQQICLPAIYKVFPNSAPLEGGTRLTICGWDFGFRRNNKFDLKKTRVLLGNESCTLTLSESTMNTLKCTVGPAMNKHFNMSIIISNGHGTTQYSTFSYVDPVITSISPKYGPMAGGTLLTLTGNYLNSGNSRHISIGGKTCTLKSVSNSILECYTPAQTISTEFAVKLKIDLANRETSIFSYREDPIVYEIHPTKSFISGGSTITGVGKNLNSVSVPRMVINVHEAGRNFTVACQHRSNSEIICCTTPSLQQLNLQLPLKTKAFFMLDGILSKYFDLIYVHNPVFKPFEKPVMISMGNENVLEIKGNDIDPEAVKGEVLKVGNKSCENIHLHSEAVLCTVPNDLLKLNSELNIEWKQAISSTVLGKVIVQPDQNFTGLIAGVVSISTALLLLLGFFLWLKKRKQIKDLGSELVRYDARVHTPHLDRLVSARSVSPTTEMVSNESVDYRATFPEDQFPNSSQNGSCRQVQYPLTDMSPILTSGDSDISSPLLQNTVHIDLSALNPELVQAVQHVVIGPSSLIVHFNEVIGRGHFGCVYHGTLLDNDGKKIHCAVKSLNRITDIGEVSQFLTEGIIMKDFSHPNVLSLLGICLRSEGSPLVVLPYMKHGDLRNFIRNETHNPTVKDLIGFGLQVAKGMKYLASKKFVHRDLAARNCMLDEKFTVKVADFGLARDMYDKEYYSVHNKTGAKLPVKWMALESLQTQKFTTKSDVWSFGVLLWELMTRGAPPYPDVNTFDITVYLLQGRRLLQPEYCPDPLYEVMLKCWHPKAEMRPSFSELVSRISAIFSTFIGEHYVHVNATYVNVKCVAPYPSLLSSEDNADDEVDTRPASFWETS
# A549 [3] = assay: Cytotoxicity against human A549 cells assessed as inhibition rate at 1.234 uM after 72 hrs by MTT assay relative to control; format: functional
# A549 [4] = assay: Cytotoxicity against human A549 cells assessed as inhibition rate at 0.137 uM after 72 hrs by MTT assay relative to control; format: functional
# A549 [5] = assay: Induction of cell cycle arrest in human A549 cells assessed as accumulation at G2 phase at 5 uM incubated for 24 hrs by propidium iodide staining based flow cytometry (reference value: 7.56 %); format: functional
# A549 [6] = assay: Cytotoxicity against human A549 cells assessed as inhibition rate at 100 uM after 72 hrs by MTT assay relative to control; format: functional
# A549 [7] = assay: Induction of cell cycle arrest in human A549 cells assessed as accumulation at S phase at 5 uM incubated for 24 hrs by propidium iodide staining based flow cytometry (reference value: 27.97 %); format: functional
# A549 [8] = assay: Cytotoxicity against human A549 cells assessed as inhibition rate at 3.704 uM after 72 hrs by MTT assay relative to control; format: functional
# A549 [9] = assay: Cytotoxicity against human A549 cells assessed as reduction in cell survival after 72 hrs by MTT assay; format: functional, cell-based; settings: dose 0.137-100 µM
# A549 [10] = assay: Cytotoxicity against human A549 cells assessed as inhibition rate at 33.33 uM after 72 hrs by MTT assay relative to control; format: functional
# A549 [11] = assay: Cytotoxicity against human A549 cells assessed as inhibition rate at 11.11 uM after 72 hrs by MTT assay relative to control; format: functional
# A549 [12] = assay: Induction of cell cycle arrest in human A549 cells assessed as accumulation at G0/G1 phase at 5 uM incubated for 24 hrs by propidium iodide staining based flow cytometry (reference value: 64.47 %); format: functional
# A549 [13] = assay: Cytotoxicity against human A549 cells assessed as inhibition rate at 0.411 uM after 72 hrs by MTT assay relative to control; format: functional
# [14] = Homo sapiens, MCF7, 72 h, read-out: IC50
# [15] = Homo sapiens, A549, 72 h, read-out: IC50
Compound,IC50 (HeLa) [µM],IC50 (MCF7; [14]) [µM],IC50 (A549 [1]; [15]) [µM],also measured
Cn1ccc2c(Oc3ccc(NC(=O)c4cc5cccnc5n(-c5ccc(C(F)(F)F)cc5Cl)c4=O)cc3F)ncnc21,170,–,–,IC50 (MCF7; mcf7): Not Active; IC50 (A549 [1]; a549): Not Active
Cn1ccc2c(Oc3ccc(NC(=O)c4cc5cccnc5n(-c5ccccc5)c4=O)cc3F)ncnc21,51.8,73.4,63.2,–
Cn1ccc2c(Oc3ccc(NC(=O)c4cc5cccnc5n(-c5ccc(C(F)(F)F)c(Cl)c5)c4=O)cc3)ncnc21,289,–,–,IC50 (MCF7; mcf7): Not Active; IC50 (A549 [1]; a549): Not Active
Cn1ccc2c(Oc3ccc(NC(=O)c4cc5cccnc5n(-c5ccc(Br)cc5)c4=O)cc3F)ncnc21,33.8,59.4,42.2,–
O=C(Nc1ccc(Oc2ncnc3[nH]ccc23)c(F)c1)c1cc2cccnc2n(-c2ccc(F)cc2)c1=O,3.72,9.23,5.29,IC50 [2]: 0.612 µM; inhibition at 1.234 µM (A549 [3]): 23.4%; inhibition at 0.137 µM (A549 [4]): 12.7%; Activity (A549 [5]): 5.43%; inhibition at 100 µM (A549 [6]): 90.5%; Activity (A549 [7]): 21.11%; inhibition at 3.704 µM (A549 [8]): 42.3%; Activity (A549 [9]): Dose-dependent effect; inhibition at 33.33 µM (A549 [10]): 80.6%; inhibition at 11.11 µM (A549 [11]): 54.5%; Activity (A549 [12]): 73.46%; inhibition at 0.411 µM (A549 [13]): 18.1%
O=C(Nc1ccc(Oc2ncnc3[nH]ccc23)c(F)c1)c1cc2cccnc2n(-c2ccc(Br)cc2)c1=O,19.9,27,27.3,–
O=C(Nc1ccc(Oc2ncnc3[nH]ccc23)c(F)c1)c1cc2cccnc2n(-c2ccc(Br)cc2F)c1=O,87.8,102,218,–
O=C(Nc1ccc(Oc2ncnc3[nH]ccc23)c(F)c1)c1cc2cccnc2n(-c2ccccc2)c1=O,36.9,45,45.5,–
Cn1ccc2c(Oc3ccc(NC(=O)c4cc5cccnc5n(-c5ccc(Cl)cc5)c4=O)cc3F)ncnc21,43.9,75,55.5,IC50 [2]: 3.79 µM
Cn1ccc2c(Oc3ccc(NC(=O)c4cc5cccnc5n(-c5ccccc5)c4=O)cc3)ncnc21,59.8,88.4,66.2,–
O=C(Nc1ccc(Oc2ncnc3[nH]ccc23)c(F)c1)c1cc2cccnc2n(-c2ccc(Cl)cc2)c1=O,23.9,45,35.5,IC50 [2]: 1.18 µM
O=C(Nc1ccc(Oc2ncnc3[nH]ccc23)c(F)c1)c1cc2cccnc2n(-c2ccc(C(F)(F)F)cc2Cl)c1=O,96.8,214,283,–
COc1ccc(-n2c(=O)c(C(=O)Nc3ccc(Oc4ncnc5c4ccn5C)cc3)cc3cccnc32)cc1,65.8,105,83.2,–
Cn1ccc2c(Oc3ccc(NC(=O)c4cc5cccnc5n(-c5ccc(C(F)(F)F)cc5Cl)c4=O)cc3)ncnc21,174,–,364,IC50 (MCF7; mcf7): Not Active
Cn1ccc2c(Oc3ccc(NC(=O)c4cc5cccnc5n(-c5ccc(F)cc5)c4=O)cc3F)ncnc21,4.25,11.9,7.32,IC50 [2]: 0.701 µM
Cn1ccc2c(Oc3ccc(NC(=O)c4cc5cccnc5n(-c5ccc(C(F)(F)F)c(Cl)c5)c4=O)cc3F)ncnc21,156,–,320,IC50 (MCF7; mcf7): Not Active
CN1CCN(C2CCN(C(=O)Nc3cc(Oc4ccc(NC(=O)C5(C(=O)Nc6ccc(F)cc6)CC5)c(F)c4)ccn3)CC2)CC1 [GOLVATINIB],4.23,15.4,7.7,inhibition at 1.234 µM (A549 [3]): 21.4%; inhibition at 0.137 µM (A549 [4]): 13.7%; Activity (A549 [5]): 6.53%; inhibition at 100 µM (A549 [6]): 85.1%; Activity (A549 [7]): 19.82%; inhibition at 3.704 µM (A549 [8]): 35.3%; inhibition at 33.33 µM (A549 [10]): 76.5%; inhibition at 11.11 µM (A549 [11]): 47.5%; Activity (A549 [12]): 73.65%; inhibition at 0.411 µM (A549 [13]): 17.2%
Cn1ccc2c(Oc3ccc(NC(=O)c4cc5cccnc5n(-c5ccc(Cl)cc5)c4=O)cc3)ncnc21,49.9,95,75.5,–
Cn1ccc2c(Oc3ccc(NC(=O)c4cc5cccnc5n(-c5ccc(Br)cc5)c4=O)cc3)ncnc21,43.8,79.4,52.2,–
